How the values were obtained:
[1] = excess molar enthalpy (molar enthalpy of mixing); xn = mol fraction of the nth substance listed; details: 308.15 K, 101.3 kPa, Liquid
[2] = 308.15 K; 101.33 kPa; Liquid; vibrating tube

CC(O)CO (configuration not stated) [1,2-propanediol] + C[S+](C)[O-]
[1]
Details	excess molar enthalpy [kcal/mol]
x2 = 0.0389	-0.0194
x2 = 0.0748	-0.039
x2 = 0.1082	-0.0531
x2 = 0.1392	-0.0645
x2 = 0.1921	-0.0847
x2 = 0.2444	-0.0962
x2 = 0.3267	-0.104
x2 = 0.3928	-0.101
x2 = 0.4925	-0.0926
x2 = 0.5929	-0.0788
x2 = 0.66	-0.0691
x2 = 0.7444	-0.0543
x2 = 0.7952	-0.0446
x2 = 0.8535	-0.0323
x2 = 0.8859	-0.0234
x2 = 0.9209	-0.0155
x2 = 0.9588	-0.00719

CC(O)CO (configuration not stated) [1,2-propanediol]
Details	mass density [kg/m3]
[2]	1026.15

OCCOCCOCCO [triethylene glycol]
Details	mass density [kg/m3]
[2]	1112.1

OCCOCCO [diethylene glycol]
Details	mass density [kg/m3]
[2]	1105.65

C[S+](C)[O-] [dimethyl sulfoxide]
Details	mass density [kg/m3]
[2]	1085.5

OCCO [1,2-ethanediol] + C[S+](C)[O-]
[1]
Details	excess molar enthalpy [kcal/mol]
x1 = 0.0506	-0.0466
x1 = 0.0963	-0.0878
x1 = 0.1378	-0.119
x1 = 0.1757	-0.147
x1 = 0.2423	-0.181
x1 = 0.2989	-0.203
x1 = 0.39	-0.219
x1 = 0.4601	-0.218
x1 = 0.5612	-0.198
x1 = 0.6574	-0.169
x1 = 0.7189	-0.147
x1 = 0.7933	-0.118
x1 = 0.8365	-0.0991
x1 = 0.8847	-0.0728
x1 = 0.911	-0.0595
x1 = 0.9388	-0.044
x1 = 0.9685	-0.0237

OCCOCCO [diethylene glycol] + C[S+](C)[O-]
[1]
Details	excess molar enthalpy [kcal/mol]
x1 = 0.0303	-0.0251
x1 = 0.0588	-0.0476
x1 = 0.0857	-0.0664
x1 = 0.1111	-0.0834
x1 = 0.1579	-0.109
x1 = 0.2	-0.128
x1 = 0.2727	-0.15
x1 = 0.3332	-0.159
x1 = 0.4285	-0.162
x1 = 0.5295	-0.154
x1 = 0.6	-0.145
x1 = 0.6923	-0.124
x1 = 0.75	-0.112
x1 = 0.8182	-0.0909
x1 = 0.8571	-0.0762
x1 = 0.9	-0.0599
x1 = 0.9474	-0.0347

OCCOCCOCCO [triethylene glycol] + C[S+](C)[O-]
[1]
Details	excess molar enthalpy [kcal/mol]
x1 = 0.0217	-0.0287
x1 = 0.0425	-0.0537
x1 = 0.0625	-0.0751
x1 = 0.0816	-0.0944
x1 = 0.1176	-0.125
x1 = 0.1509	-0.15
x1 = 0.2104	-0.181
x1 = 0.2621	-0.198
x1 = 0.3477	-0.215
x1 = 0.4444	-0.214
x1 = 0.516	-0.207
x1 = 0.6153	-0.186
x1 = 0.6807	-0.168
x1 = 0.7618	-0.137
x1 = 0.81	-0.117
x1 = 0.8648	-0.0917
x1 = 0.9275	-0.0526
